Experimental data reported in paper PMC7155171, “Probing the Open Global Health Chemical Diversity Library for Multistage-Active Starting Points for Next-Generation Antimalarials” (ACS Infectious Diseases, 2020).
Like-named read-outs stand apart in the source and are kept apart here.

Columns and labels:
[1] = tested on: P. falciparum Dd2 (PfLuc) line expressing firefly luciferase, asexual blood stage; assay: microbe, parasite or virus in culture; set-up: species or system P. falciparum Dd2-luciferase in human red blood cells; PfLuc Dd2 asexual blood stage luciferase viability, BrightGlo luminescence, 96 h; settings: Plasmodium falciparum, DD2, Erythrocyte, read-out: CDD P. falciparum Luc 11pt dose response (96hr, n=2): IC50 (μM), 11-point
Procedure: (§1) A transgenic line of Plasmodium falciparum (Dd2) constitutively expressing firefly luciferase was used for primary and reconfirmation screening. Cultures were maintained in complete media at 5% hematocrit (Human Whole Blood O+) and incubated at 37 °C in a low oxygen environment (3% O2, 5% CO2, and 92% N2). Culture health and parasitemia were tracked by Giemsa staining and bright field microscopy. Prior to dispensing parasites for primary screening, 20 nL of test compounds and 10 nL of control compounds (artemisinin and DMSO) were seeded per well using an Echo 550 acoustic dispenser (Labcyte) for final assay concentrations of 5 and 10 μM, respectively. When parasite cultures reached 3% to 8% parasitemia, as determined by a blood smear, infected blood was centrifuged at 800g for 5 min. […] From this blood mixture, 8 μL was dispensed per well in 1536-well, white, solid-bottom plates (789173-F, Greiner) using a MultiFlo FX Multi-Mode dispenser (BioTek). Plates were covered with a porous metal lid and incubated at 37 °C inside large plastic Ziploc bags filled with a blood gas mixture (3% O2, 5% CO2, and 92% N2) for 96 h. To prevent evaporation, a clean tray of water was included within each bag. Following incubation, BrightGlo was prepared by manufacturer specifications and dispensed at 2 μL per well using the MultiFlo dispenser. Plates were left for 20 min before being read with the ViewLux uHTS microplate imager (PerkinElmer) with a 90 s exposure time at the High Sensitivity Luminescence setting. Raw data were processed using GeneData (v12.0.5), whereby activity was normalized to negative minus positive controls. The correction of Runwise Pattern (Multiplicative) was applied, and compounds were considered hits when activity was reduced by ≥70%. […] Also, plates tested in 11-point dose response format were incubated at both 48 a The primary assay was run at a compound concentration of 5 μM. Briefly, 8 μL of an ABS parasite mixture (∼10,000 parasites) was dispensed into 1536-well plates previously spotted with 64,811 GHCDL compounds (the remaining 3642 library compounds arrived later and were evaluated separately). After a 96 h incubation, 2 μL of luciferin (BrightGlo) was added, and the luminescent signal was measured. Bioluminescence was normalized to DMSO (negative control) and artemisinin-treated (positive control) wells for the single point screens. For this primary screen, assay fidelity was determined on a per plate basis using both the Z′-factor and the potency variance of the positive (artemisinin) and negative (DMSO) controls. The mean Z′ value was 0.60 (range of 0.43–0.75), with only one plate falling below our ideal 0.5 threshold (Figure S1).

[2] = tested on: P. falciparum Dd2 (PfLuc) line expressing firefly luciferase, asexual blood stage; assay: microbe, parasite or virus in culture; set-up: species or system P. falciparum Dd2-luciferase in human red blood cells; PfLuc Dd2 asexual blood stage luciferase viability, BrightGlo luminescence, 48 h; settings: Plasmodium falciparum, DD2, Erythrocyte, read-out: CDD P. falciparum Luciferase 11pt dose response (48hr, n=2): IC50 (μM), 11-point
Procedure: as §1, with “From these (Sets 1 and 2),” for “The primary assay was run at a compound concentration of 5 μM. Briefly, 8 μL of an ABS parasite mixture (∼10,000 parasites) was dispensed into 1536-well plates previously spotted with 64,811 GHCDL”, “were resupplied as fresh powders” for “(the remaining 3642 library compounds arrived later”, “and” for “and were”, “in 11-point dose response tests (Pfluc; n = 2)” for “separately). After a 96 h incubation, 2 μL of luciferin (BrightGlo) was added, and the luminescent signal was measured. Bioluminescence was normalized to DMSO (negative control) and artemisinin-treated (positive control) wells”, “two time points.” for “single point screens. For this primary screen, assay fidelity was determined on a per plate basis using both the Z′-factor and the potency variance of the positive (artemisinin) and negative (DMSO) controls. The mean Z′ value was 0.60 (range of 0.43–0.75), with only one plate falling below our ideal 0.5 threshold (Figure S1).”

P. falciparum Dd2 = assay: microbe, parasite or virus in culture; set-up: species or system P. falciparum Dd2 in human red blood cells; SYBR Green I asexual blood stage proliferation (DNA) assay, P. falciparum Dd2, 96 h; settings: Plasmodium falciparum, DD2, Erythrocyte, 96 h, read-out: CDD P. falciparum Sybr Green I ABS Dd2 Dose Response: IC50 (uM)
[3] = tested on: HepG2-A16-CD81 hepatocytes; assay: HepG2 cytotoxicity screening (CellTiter-Glo); settings: for IC50: HepG2-A16-CD81, read-out: HepG2 tox IC50
[4] = tested on: P. vivax patient isolates, exoerythrocytic forms (schizonts and hypnozoites); assay: P. vivax liver stage assay in HC04 cells (immunofluorescence); settings: HC04 cells treated 24 h before sporozoites, nanomolar concentrations, counted day 7
[5] = molecular target: recombinant firefly luciferase (Photinus pyralis, UniProt P08659); assay: biochemical
Sequence of recombinant firefly luciferase (P08659 whole entry): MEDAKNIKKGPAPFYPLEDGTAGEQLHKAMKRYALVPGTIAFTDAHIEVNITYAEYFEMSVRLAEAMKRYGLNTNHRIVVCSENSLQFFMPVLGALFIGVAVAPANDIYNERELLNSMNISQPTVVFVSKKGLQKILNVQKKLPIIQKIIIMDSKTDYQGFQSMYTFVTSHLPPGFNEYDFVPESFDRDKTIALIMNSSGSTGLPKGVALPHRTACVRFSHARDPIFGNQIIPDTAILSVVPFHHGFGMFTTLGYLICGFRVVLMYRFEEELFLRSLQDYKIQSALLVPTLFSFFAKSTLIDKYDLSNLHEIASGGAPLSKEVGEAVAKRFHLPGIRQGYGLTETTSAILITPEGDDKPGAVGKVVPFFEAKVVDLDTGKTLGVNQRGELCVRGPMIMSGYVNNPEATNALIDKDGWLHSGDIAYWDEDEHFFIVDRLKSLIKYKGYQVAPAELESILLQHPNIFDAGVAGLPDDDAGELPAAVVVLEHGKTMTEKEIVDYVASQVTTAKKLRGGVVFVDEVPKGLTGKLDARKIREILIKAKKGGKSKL

[6] = tested on: P. berghei liver stage (PbLuc); assay: P. berghei luciferase liver stage (PbLuc) assay in HepG2-A16-CD81 hepatocytes; type: cell-based, Plasmodium berghei; settings: Plasmodium berghei
[7] = tested on: P. falciparum (NF54) stage V gametocytes; assay: Stage V gametocyte viability assay (MitoTracker Red CMXRos high content imaging); type: cell-based, Plasmodium falciparum; settings: Plasmodium falciparum, NF54, 72 h
[8] = tested on: HepG2-A16-CD81 hepatocytes; assay: cells; set-up: Uninfected hepatocyte viability, CellTiter-Glo luminescence; settings: sheet CDD Export 1;, cytotoxicity primary screen, read-out: Table S5. Liver stage reconfirmation data / HepG2 Cytotoxicity primary screen (2uM): % Inhibition
Procedure: For the screen, 5 μL of HepG2-A16-CD81 hepatocytes containing 3 × 10^3 cells was seeded into 1536-well plates, which had been prespotted with 10 nL of library compound (2 μM final assay concentration (Figure 1)) and incubated overnight. For PbLuc infected plates, approximately 750 purified sporozoites in 5 μL of screening media were added to each well and incubated for 48 h before measuring luciferase activity. Compounds were tested for toxicity in parallel (see Methods) by measuring uninfected hepatocyte viability using CellTiter-Glo. […] This hit rate was slightly lower than expected for an agnostic library, which prompted us to rescreen the entire library at 10 μM. The PbLuc and cytotoxicity assay plates for this second replicate would be stamped in-house with 50 nL of library compound per well, using the same compound plates as the sexual stage screen described below. All the assay parameters were kept similar, except the change in concentration and shortening the time the compounds spent in each well prior to infection. […] All potential false positive effectors from the CellTiter-Glo assay were filtered from subsequent studies (Table S1). Naturally, there were more primary hits from the 10 μM than the 2 μM screen due to the higher testing concentration. For reconfirmation, we sourced all the hits that inhibited PbLuc at >70% and mean HepG2 at <50% in the 2 μM screen or PbLuc at >60% in both 2 and 10 μM screens and mean HepG2 at <50%. The resulting compounds were acquired as DMSO stocks and retested in the dose response (50–2.82 × 10^–4 μM or 25–141.13 × 10^–6 μM) against PbLuc and uninfected hepatocytes (Table S5). […] The majority of these compounds were weak inhibitors, although 18 submicromolar hits were found (Table S5).

in vitro = settings: human
[9] = tested on: P. falciparum asexual blood stage (wild-type and DDD01061024-resistant Dd2-B2 clones); assay: Lactate dehydrogenase (LDH) asexual blood stage assay; type: cell-based, Plasmodium falciparum; settings: for IC50: Plasmodium falciparum
Source text: Mutations within this site, and indeed at our V259L residue, were previously reported using other known cytochrome b inhibitors including ELQ400[49] and RYL-552.[50]
Figure S3. DDD01061024 is a cytochrome bc1 inhibitor.
The dual stage inhibitor, DDD01061024, is shown occupying the Q0 site (residues outlined in orange) of a Pf Cyt Bc1 homology model (from PDB: 1BE3) (a). A local V259L substitution (red) in mutant clones may destabilize the interactions within this pocket, helping resistant clones tolerate higher doses of the inhibitor (b). DDD01061024-resistannt mutants show cross-resistance to atovaquone (c), another multistage active antimalarial which targets the Q0 binding site. Dose dependent inhibition was determined using a metabolic endpoint (LDH) before normalizing to controls (n=2). Measuring the percentage of PbGFP infected hepatocytes using a high content imaging system validates the liver-stage potency of DDD01061024 in a fluorescence-based model (d). Infected hepatocytes were counted using luminescence-independent high content imaging in treated wells and normalized to controls over two replicates.
(1 picture or pasted object on this page, not shown here)

[10] = HepG2-A16-CD81, 48 h, 48 h liver stage, HepG2-A16-CD81, read-out: Pbluc (EEF) IC50

SMILES | IC50 [1] | IC50 [2] | IC50 (P. falciparum Dd2) | also measured
CN(C)CCCNCCC(c1ccccc1)C1CCOC(C)(C)C1 (stereo not drawn) [DDD01026663] | 0.627 µM | 2.82 µM | > 1.39 µM | –
Cc1cc(NC(=O)C(C)C)n(-c2nc(C)c(C)c(=O)[nH]2)n1 [DDD01027481] | – | – | – | IC50 [3]: > 25000 nM; P. vivax hypnozoites or schizonts after treatment [4]: no detectable hypnozoites or schizonts; IC50 ([5]; read-out: rLuc IC50): > 50000 nM; IC50 [6, 10]: 138 nM
CC(C)C[C@H](N)C(=O)N1CC2(CCNCC2)c2cc(Cl)ccc21 [DDD01029528, CC(C)C[C@H](N)C(=O)N1CC2(CCNCC2)C2=CC(Cl)=CC=C12] | 0.553 µM | 1.79 µM | 1.52 µM | IC50 ([7]; read-out: Stg V Gam dose response IC50 (µM) (n=3), 10-point dose response, n=3, 72 h): 3.02 µM; inhibition at 2 µM ([7]; read-out: Stg V Gam primary screen: Inhibition % (2uM) (n=2)): 49.8%
Cc1ccc(-c2ccccc2CC2(C(=O)NC(C)C)CCCNC2)cc1 (stereo not drawn) [DDD01056815] | 0.863 µM | > 4.16 µM | > 4.16 µM | –
CN(C)CCNC(=O)c1sc2ccccc2c1C1CCC(CN)CC1 (stereo not drawn) [DDD01058779] | 2.3 µM | 1.31 µM | 1.65 µM | –
CCOC(=O)C1(Cc2ccccc2-c2ccccc2OC)CCNCC1 [DDD01059034] | 0.861 µM | 5.11 µM | > 4.16 µM | –
CNc1nc(C)c(-c2nc(-c3c(C)ncc4c3CCNC4)no2)s1 [DDD01244276] | 0.337 µM | 0.956 µM | 1.65 µM | –
Cc1cc(N2CCC(NC(C)Cc3ccsc3)CC2)nc(N)n1 (stereo not drawn) [DDD01252553] | 0.246 µM | 1.11 µM | 1.01 µM | –
c1ccc(-c2ccc(C3CNCCO3)nc2)cc1 (stereo not drawn) [DDD01270216] | 1.44 µM | 1.77 µM | > 12.5 µM | IC50 [3]: > 25000 nM; inhibition at 2 µM [8]: 6.27%; IC50 ([5]; read-out: rLuc IC50): 220 nM; IC50 [6, 10]: < 0.141 nM
c1ccc(CCCN2CCN(c3ccc4nncn4n3)CC2)cc1 [DDD01295523] | 0.912 µM | 3.86 µM | – | –
COc1cc(C(=O)NCc2ccc3c(c2)CCCN3C)cc(OC)c1Br [DDD01300030] | 2.46 µM | 5.74 µM | > 12.5 µM | –
COc1ccc(CNCC2CCN(CC(C)O)CC2)c2ccccc12 (stereo not drawn) [DDD01302860] | 0.621 µM | 1.27 µM | 0.743 µM | –
CCS(=O)(=O)N1[CH]Cc2ccc(NC(=O)Nc3cccc(C#N)c3)cc21 [UCSD-0785775] | – | – | – | HepG2 cytotoxicity 12pt dose response: Maximum inhibition (%) ([3]; 12pt dose response, maximum inhibition): 52.4%; IC50 (in vitro): > 25000 nM; inhibition at 2 µM (in vitro): -2.63%; inhibition at 10 µM (in vitro): 39.2%; Emax ([5]; dose response, maximum inhibition, read-out: rLuc inhibition dose response: Maximum inhibition (%)): 6.44%; IC50 ([5]; dose response, read-out: rLuc inhibition dose response: IC50): > 25000 nM; Emax ([6]; HepG2-A16-CD81, 48 h, 12pt dose response, maximum inhibition): 91.5%; inhibition at 2 µM ([6]; HepG2-A16-CD81, primary screen, 2 uM): -22.1%; inhibition at 10 µM ([6]; HepG2-A16-CD81, primary screen, 10 uM): 86.7%; IC50 ([6]; HepG2-A16-CD81, read-out: PbLuc 12pt dose response: IC50): 1360 nM
O=C1[C@@H]2CC[C@@H](CN(c3ncnc4ccsc34)C2)N1CC1CC1 [UCSD-0827296] | – | – | – | inhibition at 2 µM (in vitro): -8.03%
O=C1NCCN1C1CCCN(Cc2coc(-c3ccc(F)cc3)n2)C1 (stereo not drawn) [UCSD-0845351] | – | – | – | inhibition at 2 µM (in vitro): 0.09%
O=C1C(O)=C([C@H]2CC[C@H](c3ccc(Cl)cc3)CC2)C(=O)c2ccccc21 [atovaquone] | – | – | – | fold increase of IC50, DDD01061024 mutants vs wild-type [9]: 11 fold; IC50 ([9]; DD2, read-out: IC50 against wild-type parasites): 0.377 nM; IC50 ([9]; DD2, read-out: IC50 in DDD01061024 mutants): 4.19 nM
